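A five-concentration, 48-hour dose response in 96-well plates underlies each endpoint, interpolated linearly between surrounding concentrations. Here, GI50 denotes the concentration required for 50% inhibition of growth.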 Calls of active or inactive are those of the source. Rule as the data show it: active = GI50 up to about 1.1 µM and inactive = higher.

Data on eleven compounds can be found in ChEMBL document CHEMBL1201862, “PubChem BioAssay data set” (2004).

Test systems include HCC 2998; SF-295; MCF7; UACC-257; NCI-H522; RXF 393; NCI/ADR-RES; KM12; OVCAR-8; A498; UO-31; RPMI-8226; OVCAR-5; COLO 205; DU-145; UACC-62; SN12C; Malme-3M; A549; CAKI-1.
Experiment in all cases: inhibition of tumour cell growth, NCI panel, 48 h

Turning to `CC(C)[C@]12O[C@H]1[C@@H]1O[C@@]13[C@@]1(C)CCC4=C(COC4=O)[C@@H]1C[C@@H]1O[C@@]13C2=O` [TRIPTONIDE], the GI50 with HCC 2998 was 0.029 µM (active); in the experiment with SF-295, 0.0771 µM (active); with MCF7, < 0.01 µM (active); in the experiment with UACC-257, < 0.0164 µM (active); in the experiment with NCI-H522 it was < 0.0186 µM (active); with RXF 393, < 0.01 µM (active). In addition, the GI50 with NCI/ADR-RES is 0.0386 µM (active); in the experiment on KM12 it was 0.824 µM (active); in the experiment with OVCAR-8, 0.0339 µM (active); in the experiment on A498, 0.0178 µM (active); in the experiment on UO-31, 0.0123 µM (active); with RPMI-8226, < 0.01 µM (active). For the same compound, the GI50 in the experiment with OVCAR-5 is 0.0317 µM (active); in the experiment on COLO 205, < 0.0113 µM (active); in the experiment with DU-145, 0.0235 µM (active); in the experiment with UACC-62, 0.0122 µM (active); with SN12C it was < 0.0172 µM (active); with Malme-3M it was 0.0191 µM (active). Besides, the GI50 in the experiment on A549 is 0.0384 µM (active).
On to `c1ccc(-c2nn(-c3ccccc3)[n+](-c3ccccc3)n2)cc1` [TETRAZOLIUM RED], for which the GI50 in the experiment on HCC 2998 was 1.53 µM (inactive); in the experiment with SF-295 it was > 56.1 µM (inactive); in the experiment on MCF7, 2.88 µM (inactive); in the experiment with UACC-257, 2.85 µM (inactive); in the experiment with NCI-H522, > 37.9 µM (inactive); with RXF 393, 11.6 µM (inactive). The GI50 was > 100 µM (inactive) in the experiment with CAKI-1; > 100 µM (inactive) in the experiment on NCI/ADR-RES; 11.3 µM (inactive) in the experiment with KM12; 49.9 µM (inactive) in the experiment on OVCAR-8; > 74.6 µM (inactive) in the experiment with A498; > 100 µM (inactive) in the experiment with UO-31. Further, the GI50 in the experiment with OVCAR-5 is 35.7 µM (inactive); in the experiment on DU-145, > 48.5 µM (inactive); with UACC-62, 13.8 µM (inactive); in the experiment with SN12C, 9.59 µM (inactive); in the experiment with Malme-3M, 0.394 µM (active); in the experiment with A549 it was 23.9 µM (inactive).
As to `Clc1ccccc1-c1nnc2c(-c3ccccc3)nc3ccccc3n12`, the GI50 with HCC 2998 was > 100 µM (inactive); in the experiment with MCF7, 92 µM (inactive); in the experiment on UACC-257, > 100 µM (inactive); in the experiment with RXF 393 it was 13 µM (inactive); in the experiment with NCI/ADR-RES it was > 100 µM (inactive); in the experiment on KM12 it was > 100 µM (inactive). Besides, the GI50 in the experiment on A498 is > 100 µM (inactive); in the experiment with UO-31 it was 2.07 µM (inactive); in the experiment with RPMI-8226, > 100 µM (inactive); in the experiment with OVCAR-5, > 100 µM (inactive); in the experiment on COLO 205, > 100 µM (inactive); in the experiment on DU-145, > 100 µM (inactive). Also, the GI50 was > 100 µM (inactive) with UACC-62, > 100 µM (inactive) with SN12C, 61.7 µM (inactive) in the experiment on Malme-3M and > 100 µM (inactive) in the experiment with A549.
As to `CCNC(=S)Nc1c(C#N)c2n(c1C(=O)OCC)CCCCC2`, the GI50 was > 100 µM (inactive) with HCC 2998; > 100 µM (inactive) in the experiment on SF-295; > 100 µM (inactive) in the experiment with MCF7; > 100 µM (inactive) in the experiment with UACC-257; 33.1 µM (inactive) in the experiment on RXF 393; > 100 µM (inactive) with CAKI-1. Also, the GI50 in the experiment on NCI/ADR-RES is > 100 µM (inactive); in the experiment with KM12, > 100 µM (inactive); in the experiment on OVCAR-8, > 100 µM (inactive); in the experiment with A498, > 100 µM (inactive); in the experiment with UO-31 it was > 100 µM (inactive); in the experiment with RPMI-8226 it was 71.3 µM (inactive). The GI50 in the experiment with COLO 205, in the experiment with DU-145 and in the experiment on UACC-62 was > 100 µM (inactive) in each case.
Regarding `CC(C)CC1c2[nH]c3ccccc3c2C[C@H]2C(=O)NC(CCCCNC(=O)OC(C)(C)C)C(=O)N12` (stereo partly specified), the GI50 is 12.3 µM (inactive) in the experiment on SF-295; 34.3 µM (inactive) in the experiment on MCF7; 44.8 µM (inactive) in the experiment with UACC-257; 19.5 µM (inactive) with NCI-H522; 6.62 µM (inactive) with RXF 393; 37.3 µM (inactive) in the experiment on CAKI-1. Besides, the GI50 with NCI/ADR-RES was 33.4 µM (inactive); with KM12 it was 17 µM (inactive); with OVCAR-8, 34.2 µM (inactive); with A498, 35.4 µM (inactive); with UO-31 it was 38.1 µM (inactive); in the experiment on RPMI-8226 it was 18.7 µM (inactive). In addition, the GI50 is 61.5 µM (inactive) in the experiment on OVCAR-5; 27.7 µM (inactive) in the experiment with COLO 205; 38 µM (inactive) in the experiment with DU-145; 27 µM (inactive) in the experiment with UACC-62; 33.9 µM (inactive) in the experiment with SN12C; 31.6 µM (inactive) with Malme-3M. The GI50 in the experiment with A549 is 33.7 µM (inactive).
In the case of `O=S(=O)(O)c1ccc(-c2nnc(-c3ccccn3)nc2-c2ccc(S(=O)(=O)O)o2)o1`, the GI50 in the experiment with SF-295, with MCF7, in the experiment on NCI-H522, with RXF 393, in the experiment with CAKI-1 and with NCI/ADR-RES was > 100 µM (inactive) in each case. Besides, the GI50 in the experiment on KM12, in the experiment with OVCAR-8, with A498, in the experiment on UO-31, with RPMI-8226 and with OVCAR-5 was > 100 µM (inactive) each time. In addition, the GI50 in the experiment with COLO 205, in the experiment on DU-145, in the experiment on UACC-62, in the experiment with SN12C, in the experiment on Malme-3M and with A549 was > 100 µM (inactive) throughout.
Regarding `Oc1nnc(-c2ccc(F)cc2)cc1-c1ccccc1`, the GI50 with HCC 2998 was 78.5 µM (inactive); in the experiment with SF-295 it was 40.4 µM (inactive); in the experiment with MCF7, 71.4 µM (inactive); in the experiment on UACC-257, > 100 µM (inactive); in the experiment on RXF 393, 46.1 µM (inactive); in the experiment with CAKI-1 it was 69.5 µM (inactive). For the same compound, the GI50 was > 100 µM (inactive) with NCI/ADR-RES; > 100 µM (inactive) in the experiment on KM12; 50.4 µM (inactive) with OVCAR-8; 64.4 µM (inactive) in the experiment with A498; 75 µM (inactive) with RPMI-8226; > 100 µM (inactive) with OVCAR-5. The GI50 is > 100 µM (inactive) in the experiment on COLO 205; 57.5 µM (inactive) in the experiment with DU-145; 76.2 µM (inactive) with UACC-62; > 100 µM (inactive) with SN12C; 97.5 µM (inactive) in the experiment with Malme-3M; > 100 µM (inactive) with A549.
Turning to `CCOn1c(C2(CC3CCN(C(=O)c4ccccc4)CC3)OCCO2)cc2ccccc21`, the GI50 in the experiment with SF-295 is 15.8 µM (inactive); in the experiment with MCF7, 14.8 µM (inactive); in the experiment with UACC-257, 11.1 µM (inactive); in the experiment with NCI-H522 it was 19.3 µM (inactive); in the experiment on RXF 393 it was 17.4 µM (inactive); with CAKI-1, 15.4 µM (inactive). The GI50 was 16.9 µM (inactive) in the experiment on NCI/ADR-RES; 15.8 µM (inactive) in the experiment with KM12; 14.3 µM (inactive) in the experiment with OVCAR-8; 12.9 µM (inactive) in the experiment with A498; 14 µM (inactive) in the experiment on UO-31; 8.51 µM (inactive) in the experiment on RPMI-8226. Besides, the GI50 with OVCAR-5 was 19 µM (inactive); in the experiment on COLO 205 it was 16.4 µM (inactive); in the experiment on DU-145 it was 18.1 µM (inactive); in the experiment with UACC-62 it was 11 µM (inactive); with SN12C it was 17.2 µM (inactive); in the experiment with Malme-3M it was 18.2 µM (inactive). For the same compound, the GI50 with A549 was 16.9 µM (inactive).
As for `O=C1CSC(=O)/C1=C\NNc1nc2ccccc2o1`, the GI50 in the experiment with HCC 2998 was 54.1 µM (inactive); in the experiment with SF-295, 19.9 µM (inactive); in the experiment on MCF7, 59.3 µM (inactive); in the experiment on UACC-257, 29.7 µM (inactive); with RXF 393, 21.8 µM (inactive); in the experiment with CAKI-1, 23.9 µM (inactive). Besides, the GI50 is 12.5 µM (inactive) in the experiment on NCI/ADR-RES; 67.9 µM (inactive) in the experiment on KM12; 13.6 µM (inactive) with OVCAR-8; 25.5 µM (inactive) in the experiment on A498; 60.7 µM (inactive) in the experiment with OVCAR-5; 27 µM (inactive) in the experiment with COLO 205. Moreover, the GI50 was 47.5 µM (inactive) in the experiment with DU-145; 18 µM (inactive) in the experiment with UACC-62; 29.6 µM (inactive) in the experiment on SN12C; 31.5 µM (inactive) in the experiment with Malme-3M; 27.7 µM (inactive) with A549.
Turning to `COc1ccc(CC(C)NCC(O)c2ccc(O)c(NC=O)c2)cc1` (stereo unspecified), the GI50 in the experiment on SF-295 was 33.9 µM (inactive); in the experiment on MCF7, > 100 µM (inactive); with UACC-257, > 100 µM (inactive); in the experiment with NCI-H522, > 100 µM (inactive); with RXF 393, > 100 µM (inactive); with CAKI-1, 42.2 µM (inactive). Further, the GI50 in the experiment with NCI/ADR-RES, in the experiment on KM12, with OVCAR-8, with A498, with UO-31 and with RPMI-8226 was > 100 µM (inactive) each time. Also, the GI50 was > 100 µM (inactive) in the experiment on OVCAR-5; > 100 µM (inactive) with COLO 205; > 100 µM (inactive) in the experiment with DU-145; > 100 µM (inactive) in the experiment on UACC-62; 20.1 µM (inactive) in the experiment on SN12C; > 100 µM (inactive) in the experiment on Malme-3M. The GI50 in the experiment on A549 is > 100 µM (inactive).
Consider `COc1ccc(C2=C(N)c3c(OC)cccc3C2=O)cc1`, for which the GI50 in the experiment with HCC 2998 was > 100 µM (inactive); with SF-295, 86.1 µM (inactive); with MCF7, 60.5 µM (inactive); with UACC-257 it was > 10 µM (inactive); in the experiment on RXF 393, 9.66 µM (inactive); with CAKI-1, > 100 µM (inactive). For the same compound, the GI50 with NCI/ADR-RES was > 100 µM (inactive); in the experiment on KM12, > 100 µM (inactive); in the experiment on OVCAR-8 it was 62.2 µM (inactive); with A498 it was > 100 µM (inactive); with UO-31, > 100 µM (inactive); with RPMI-8226, > 100 µM (inactive). The GI50 in the experiment with OVCAR-5, in the experiment on COLO 205, in the experiment with DU-145, in the experiment with UACC-62, with SN12C and with Malme-3M was > 100 µM (inactive) each time.
